These results are taken from patent publication US10793509B2, “Compounds useful in the treatment of neoplastic diseases” (UNIVERSITÄT ZU KÖLN, priority 2013, dated 2020).

Test [1] relates to EHEB. Kind of test: CellTiter-Glo ATP assay, EHEB cell line. The test is classed as cell-based. The note with it: 24 h, 0.01-1000 μM. The method, then:
(§1) Several cell lines (n=5) were treated with different concentrations of p-NO-ASA, B9, B12 and B13 ranging between 0.01 μM and 1000 μM for 24 hours followed by addition of luminogenic CellTiter-Glo®-reagent. […] For each cell line the order of used compound in the bar chart is from left to right as following: p-NO-ASA, B9, B12, B13.
(§2) Treatment success in CLL may depend on cytogenetic and molecular parameters as for instance del13q or TP53 gene disruption. Therefore, the NO-ASA derivatives were examined on (chronic) B cell lymphoma cell lines with different geno- and phenotypes (JVM3, EHEB, U2932, MEC-1, GRANTA-519). The cells were treated with concentrations between 0.01 and 1000 μM for 24 h followed by the addition of luminogenic CellTiter-Glo® reagent.
(In ATP-based viability assays light output follows the ATP content of the culture.)

In test [2] the test system is GRANTA-519. As to the kind of experiment: CellTiter-Glo ATP assay, GRANTA-519 cell line. The test is classed as cell-based. As to conditions: 24 h. The method, then:
as §1, §2

In test [3] the test system is phosphorylated NFkappaBp65 protein. Kind of test: Western blot of NFkappaB phosphorylation status in CLL cells. The test is classed as cell-based, human. As to conditions: 3 h. How it is done:
CLL cells were treated with B1, B9, B12 and B13 (0.1 μM, 1 μM, 10 μM) for 3 h. Untreated and DMSO (1%) treated cells served as control. GAPDH=loading control.
The BCR signalling pathway plays an important pathogenic role in CLL and lymphomas leading often to a constitutive active NFkappaB (in this state NFkappaB is phosphorylated). Therefore the influence of the derivatives on the phosphorylation status of NFkappaB was analyzed by Western Blot. CLL cells were treated with 0.1 μM, 1 μM or 10 μM of each derivate, respectively, for 3 h. CLL cells were treated with B1, B9, B12 and B13 (0.1 μM, 1 μM, 10 μM) for 3 h. Untreated and DMSO (1%) treated cells served as control. GAPDH=loading control.
In general terms: In western blotting, separated proteins are transferred to a membrane and probed.

The subject of test [4] is peripheral blood mononuclear cells (PBMCs) of healthy donors. As to the kind of experiment: AnnexinV/PI assay on PBMCs of healthy donors. The test is classed as cell-based. As to conditions: Homo sapiens, PBMC; 24 h incubation, 0.01-100 μM, 5*10^6 cells/ml, normalized to DMSO control; read-out: AnnexinV/PI assay EC50 PBMCs. The method, then: (§3) PBMCs or CLL cells (5*10^6 cells/ml) were incubated for 24 h with different compounds at concentrations from 0.01 to 100 μM. Cell survival was normalized to DMSO control [vehicle]. See Example 1.
(§4) Primary CLL or peripheral blood mononuclear cells of healthy donors (5*10^6/ml) were incubated for 24 h with different compounds according to the invention and NO-ASA as a control. The compounds were added in different concentrations, in particular in concentrations from 0.01-100 μM. Cell survival was assessed by AnnexinV/PI assay (Kit commercially available, e.g. by Biotium Inc, USA; or Phoenix Flow Systems, US), the results were normalized to DMSO control [vehicle] and dose response curves were calculated using a non-linear regression model.

The test system of test [5] is SW480, MelJuso, HCC44, SH2 and COLO704 cell lines. The test is classed as cell-based. The note with it: 24 h, 0.01-100 μM. The method, then:
In the following experiment the possible therapeutic window for NO-ASA derivatives was investigated. […] The melanoma cell line MelJuso, the colon carcinoma cell line SW480, the small cell lung cancer cell line HCC44, the ovarian adenocarcinoma cell line COLO704 and the acute myeloid leukemia cell line SH2 were treated with concentrations of p-NO-ASA and B9, B12 and B13 in a range between 0.01 μM and 100 μM for 24 h, followed by addition of luminogenic CellTiter-Glo® reagent.

Test [6] has as its system Primary CLL cells. As to the kind of experiment: AnnexinV/PI assay on primary CLL cells. Type of test: cell-based, human. How it is done:
as §3, §4

For test [7], the system named is U2932. Kind of test: CellTiter-Glo ATP assay, U2932 cell line. The note with it: 24 h, 0.01-1000 μM. The test is classed as cell-based. The method, then: as §1, §2
Test [8] has as its system MEC-1. Kind of test: CellTiter-Glo ATP assay, MEC-1 cell line. As to conditions: 24 h. The test is classed as cell-based. The method, then:
as §1, §2

Test [9] concerns JVM-3. As to the kind of experiment: CellTiter-Glo ATP assay, JVM-3 cell line. Type of test: cell-based, human. As to conditions: 24 h, 0.01-1000 μM. How it is done: as §1, §2
Test [10] relates to caspases 3 and 7. Kind of test: caspase-3/7 assay in CLL cells. Type of test: cell-based. As to conditions: Homo sapiens, CLL cell, 6 h, 0.01-20 μM, luminogenic caspase-3/7-substrate, read-out: activation of caspases 3 and 7, EC50. The text has this:
FIG. 8 depicts the involvement of caspase-mediated apoptosis in CLL cells upon treatment with p-NO-ASA, B9, B12 and B13. Representative blots of 3 independent experiments are shown. Untreated and DMSO (1%) treated cells served as control. beta-actin=loading control (FIG. 8A). para-NO-ASA and B9 induced a concentration-dependent increase in caspase-3/7-activation (FIG. 8B).
To determine whether the toxicity on CLL cells is due to caspase-mediated apoptosis, the cleavage of PARP (Poly(ADP-ribose)-Polymerase 1) and XIAP (X-linked inhibitor of apoptosis) was analyzed by immunoblot. CLL cells were cultured alone, with 1% DMSO or with EC50 of p-NO-ASA, meta-NO-ASA, B9, B12 and B13 for 24 h followed by protein lysation and western blot analysis using antibodies to detect prognostic apoptotic proteins (XIAP, PARP). […] All compounds tested induced PARP and XIAP cleavage (FIG. 8A). Further a caspase-3/7 assay was carried out. CLL cells were incubated with para-NO-ASA and B9 in different concentrations ranging from 0.01 μM to 20 μM for 6 h followed by addition of luminogenic caspase-3/7-substrate. This indicates the reduction of the survival of CLL cells upon treatment with p-NO-ASA and B9 due to the induction of caspase-mediated apoptosis.

Setting [11] is: 0.01-1000 μM, compared to B9, B12, B13.

Each structure is given as a SMILES string.

`CC(=O)Oc1ccccc1C(=O)Oc1ccc(CO[N+](=O)[O-])cc1` [B1, 4-(nitrooxy)methyl phenyl-2-acetoxy benzoate, reference compound]: the “ATP content in EHEB” value in test [1] is on record as “reduced ATP content”. In addition, the “effectiveness in GRANTA-519 (ATP content)” value in test [2] (setting [11]) is reported as “significantly less effective”. Further, the EC50 in test [2] (Homo sapiens, Granta-519, CellTiter-Glo) was 22.2 µM; in test [4] it was 47.2 µM; in [6] (Homo sapiens, CLL cell, 24 h incubation, 0.01-100 μM, 5*10^6 cells/ml, normalized to DMSO control, read-out: AnnexinV/PI assay EC50 Primary CLL) it was 6.7 µM; in test [8] (Homo sapiens, MEC1, CellTiter-Glo) it was 53.4 µM; in test [10] it was 1.84 µM. Further, the “reduction of NFkappaB activity (phosphorylated NFkappaBp65)” value in [3] (CLL cells, 0.1, 1, 10 μM) was “concentration dependent reduction”. In addition, the “concentration inducing the reduction of NFkappaB p65 protein” value in [3] (CLL cells) is recorded as “twofold concentration”. The “ATP content in SW480, MelJuso, HCC44, SH2 and COLO704 cell lines” value in test [5] is recorded as “reduced ATP content”. In [6] (FIG. 3, sensitivity of CLL cells vs PBMCs, 24 h), the “selectivity for CLL cells compared to PBMCs” value is “selective for CLL cells”. The “ATP content in U2932” value in test [7] is recorded as “reduced ATP content”. In test [8] (setting [11]), the “effectiveness in MEC-1 (ATP content)” value was “significantly less effective”. The “ATP content in JVM-3” value in test [9] is on record as “reduced ATP content”.
